From patent US5688640A, “Methods of screening of effectors of endothelin converting enzyme-1” (Board of Regents, The University of Texas System, priority 1994, dated 1997)
“Also recorded” adds a separate entry of the source. Ends that are not written are not given here.

Assays:
ECE-1 [1] = molecular target: T1, ECE-1 (Bos taurus, UniProt P42891); assay: ECE activity in solubilized CHO/ECE-1 membranes/homogenates, protease inhibitors (generation of mature ET-1 from big ET-1 by EIA); type: biochemical, bovine; conditions: for inhibition of ECE activity (in words): CHO/ECE-1 membranes
T1 construct: The entire coding regions from bovine ECE-1; made in house
T1 sequence (P42891 with tags, fused parts or gaps A87G/A695G limits assumed): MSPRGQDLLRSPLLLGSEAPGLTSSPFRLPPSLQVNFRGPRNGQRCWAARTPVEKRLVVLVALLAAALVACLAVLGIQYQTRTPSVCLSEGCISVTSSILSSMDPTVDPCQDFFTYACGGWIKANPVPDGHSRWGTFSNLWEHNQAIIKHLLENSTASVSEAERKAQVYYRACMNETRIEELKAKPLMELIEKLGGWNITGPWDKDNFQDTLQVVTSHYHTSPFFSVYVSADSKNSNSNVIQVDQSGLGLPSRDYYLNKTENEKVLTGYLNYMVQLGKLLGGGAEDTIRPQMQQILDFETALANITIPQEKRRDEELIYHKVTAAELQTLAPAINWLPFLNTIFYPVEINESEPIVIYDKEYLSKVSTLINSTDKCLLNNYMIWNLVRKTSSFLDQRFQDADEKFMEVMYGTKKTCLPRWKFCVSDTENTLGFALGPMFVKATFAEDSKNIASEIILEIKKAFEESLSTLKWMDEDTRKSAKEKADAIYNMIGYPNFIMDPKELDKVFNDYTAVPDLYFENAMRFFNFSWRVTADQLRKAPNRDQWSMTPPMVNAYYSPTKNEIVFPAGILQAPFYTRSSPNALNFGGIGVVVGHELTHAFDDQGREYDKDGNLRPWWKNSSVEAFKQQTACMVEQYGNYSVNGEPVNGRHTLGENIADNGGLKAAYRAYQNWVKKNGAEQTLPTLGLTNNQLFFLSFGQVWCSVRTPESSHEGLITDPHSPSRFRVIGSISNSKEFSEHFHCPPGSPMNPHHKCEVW
Protocol: Solubilized membranes were prepared from this homogenate as described under Purification of ECE, except that buffer B was used instead of buffer A. For protease inhibitor studies, membranes were prepared by using buffer B without pepstain A, PMSF and pCMS.

ECE [2] = molecular target: T2, ECE (Bos taurus, UniProt Q28010); assay: ECE activity in bovine adrenal cortex membrane fractions; type: biochemical
T2 construct: full length 758 aa
T2 sequence (Q28010 1-758): T1 sequence (P42891 with tags, fused parts or gaps A87G/A695G limits assumed)
Protocol: Bovine adrenal glands were obtained at a local slaughter house, immediately immersed in ice-cold Dulbecco's phosphate buffered saline (PBS), and brought to the laboratory within 2 hours. All subsequent procedures were performed at 4° C. Adrenal cortices were carefully separated from the medulla and connective tissue. […] The homogenate was centrifuged at 1,000×g for 10 min, and the resulting supernatant was further centrifuged at 100,000×g for 60 min. The pellet was resuspended in 5×volume of buffer A by a Teflon homogenizer, and centrifuged again at 100,000×g for 60 min. The crude membrane pellet was solubilized at 10-20 mg protein/ml in buffer A containing 2.5% C12 E10 for 30 min. The mixture was centrifuged at 100,000×g for 60 min, and the supernatant was saved as solubilized membrane.

human ETA receptor = molecular target: T3, human ETA receptor (Homo sapiens, UniProt P25101); assay: Ca2+ transient bioassay in CHO cells expressing human ETA receptors; type: cell-based
T3 sequence (P25101 21-427): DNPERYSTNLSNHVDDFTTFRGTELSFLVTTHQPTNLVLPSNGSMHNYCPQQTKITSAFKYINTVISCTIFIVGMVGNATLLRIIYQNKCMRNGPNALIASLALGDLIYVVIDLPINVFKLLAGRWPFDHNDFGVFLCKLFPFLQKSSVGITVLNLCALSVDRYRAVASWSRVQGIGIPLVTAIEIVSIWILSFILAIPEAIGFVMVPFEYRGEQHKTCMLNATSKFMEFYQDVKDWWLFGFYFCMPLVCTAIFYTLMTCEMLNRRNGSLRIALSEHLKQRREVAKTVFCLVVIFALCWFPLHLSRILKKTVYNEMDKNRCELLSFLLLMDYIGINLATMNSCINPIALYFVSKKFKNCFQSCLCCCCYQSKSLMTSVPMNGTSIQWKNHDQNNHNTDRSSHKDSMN
Protocol: Bioassay of culture supernatants from preproET-1-transfected CHO/ECE-1 cells using CHO cells expressing human ETA receptors as reporter cells. Sup-A and Sup-B represents the serum-free medium conditioned for 12 hours with CHO/ECE-1 and CHO cells each transiently transfected with the preproET-1 construct, respectively.
For the Ca^2+ transient bioassay (see below), Phenol Red-free CHO-SFM medium (Gibco/BRL) without serum was used in order to avoid artefacts induced by serum and the dye.
A CHO stable transfectant clone expressing human ETA receptors was loaded with fura-2/AM, and ET-1 induced intracellular calcium transients were monitored by a Jasco CAM-110 Intracellular Ion Analyzer as previously described (Sakamoto et al., 1993).
The functional authenticity of the immunoreactive mature peptide produced from the double-transfected cells was examined with a bioassay system that uses another line of CHO cells expressing human ETA receptors as reporter cells. A stable transfectant cell line was obtained by transfecting CHO cells with a human ETA receptor construct (Sakamoto et al., 1993). […] Next the supernatants from the preproET-1-transfected CHO/ECE-1 cells were added, so that the final concentration of ET-1 as measured by EIA was ≈20 pM.

ECE-1 [3] = molecular target: T1, ECE-1; assay: Secretion of big and mature ET-1 by preproET-1-transfected CHO/ECE-1 cells (conversion of endogenous big ET-1); type: cell-based, bovine
Protocol: (§2) Transient transfection of the preproET-1 cDNA was performed by the DEAE-dextran method as described (Sakurai et al., 1990). Twelve hours after transfection, cells were refed with fresh medium with or without ECE inhibitors. The medium was conditioned for an additional 12 hours and directly subjected to EIA for mature and big ET-1 (Suzuki et al., 1990; Suzuki et al., 1989). For the Ca^2+ transient bioassay (see below), Phenol Red-free CHO-SFM medium (Gibco/BRL) without serum was used in order to avoid artefacts induced by serum and the dye.
To examine whether the expressed ECE-1 can convert big ET-1 in intact cells, paired cultures of CHO/ECE-1 cells and untransfected CHO cells were transiently transfected with the preproET-1 construct. After the transient transfection, the amounts of mature and big ET-1 secreted into the medium were measured by EIA. […] The functional authenticity of the immunoreactive mature peptide produced from the double-transfected cells was examined with a bioassay system that uses another line of CHO cells expressing human ETA receptors as reporter cells. […] The cells were loaded with the Ca^2+ indicator Fura-2/AM, and directly challenged with serum-free, Phenol Red-free culture supernatants from the aforementioned double-transfection protocols. […] Next the supernatants from the preproET-1-transfected CHO/ECE-1 cells were added, so that the final concentration of ET-1 as measured by EIA was ≈20 pM.

CHO/ECE-1 cells = assay: Concentration of intact compound in culture medium by HPLC before and after culture with CHO/ECE-1 cells
ECE-1 [4] = molecular target: T1, ECE-1; assay: Production of mature ET-1 by 1:1 co-cultures of CHO/ECE-1 and CHO/preproET-1 cells (conversion of exogenous big ET-1); type: cell-based, bovine
Protocol: as §2
Next, the ability of CHO/ECE-1 cells to convert exogenously supplied big ET-1 was examined by co-culturing the cells with a separate CHO cell line that was stably transfected with the preproET-1 construct (CHO/preproET-1 cells).

[5] = tested on: cultured endothelial cells; conditions: cited from earlier work
endothelial ECE = conditions: cited from earlier work; for inhibition of endothelial ECE activity (in words): membranes and purified preparations
ECE [6] = conditions: cited from earlier work
ECE-1 [7] = molecular target: T1, ECE-1; assay: Reconstitution of ECE-1 activity by metal ions after EDTA stripping; type: biochemical, bovine; conditions: ZnCl2 300 μM after 30 μM EDTA
Protocol: FIG. 2D. […] After incubating on ice for 15 min, the designated concentrations of metal ions were added as chloride salt and ECE activity was measured.
(§1) Reaction mixtures for ECE assay (50 μl) contained 0.1M sodium phosphate buffer (pH 6.8), 0.5M NaCl, 0.1 μM human big ET-1(1-38) and enzyme fraction. For some studies, the reactions were preincubated at 37° C. with various protease inhibitors for 15 minutes prior to the addition of big ET-1. The reactions were incubated at 37° C. for 30 min in siliconized 0.5-ml microcentrifuge tubes. […] Duplicate assay wells were used for each enzyme reaction. Protein concentration was determined by the Bradford method (Bio-Rad) using IgG as standard.
Approximately 3,000-cm^2 confluent monolayers of cells (≈10^8 cells) were rinsed twice with ice-cold PBS. Cells were scraped off by a rubber policeman in ice-cold PBS, and collected by centrifugation. All subsequent procedures were performed at 4° C. Cells were resuspended in 10×volume of buffer B (20 mM Tris-HCl (pH 7.4)/20 μM pepstatin A/1 mM PMSF/1 MM pCMS/250 mM sucrose), and homogenized by a 30-ml Teflon homogenizer with the piston rotating at 300 r.p.m. […]

[8] = ET-1(1-20) and ET-1(1-22) relative to authentic ET-1(1-21); cited from earlier work
ECE-1 [9] = molecular target: T1, ECE-1; assay: Substrate conversion / isopeptide selectivity of cloned ECE-1 (CHO/ECE-1 membranes or homogenate, EIA); type: biochemical, bovine; conditions: in vitro; big endothelin isopeptides 0.1 μM
Protocol: FIG. 2A. Functional expression of ECE-1 cDNA in transfected CHO cells.
FIG. 2E. Isopeptide selectivity of ECE-1 expressed in solubilized CHO/ECE-1 membranes. Designated synthetic big endothelin isopeptides (0.1 μM) were used as substrates and generation of corresponding mature peptides were measured by EIA.
as §1

ECE-1 [10] = molecular target: T1, ECE-1; assay: HPLC analysis of big ET-1 conversion by partially purified ECE-1 from CHO/ECE-1 cells; type: biochemical, bovine; conditions: 5 μM big ET-1, 24 hr
Protocol: FIG. 3. HPLC analysis of big ET-1 conversion by partially purified ECE-1 from CHO/ECE-1 cells. ECE-1 was partially purified from solubilized CHO/ECE-1 membranes by WGA-agarose chromatography as described in Example 1. The enzyme fraction (800 μg protein) was incubated at 37° C. with 1 μM big ET-1 in 800 μl of ECE assay buffer. […] The reaction mixture was separated by HPLC as described in Example 1. Arrows indicate elution times of the authentic peptides.
Samples were injected into a C18 reverse-phase HPLC column (Ultrasphere ODS 5 μm, 4.6×250 mm; Beckman), which was eqhilibrated with 18% (v/v) acetonitrile/0.1% (v/v) TFA and maintained at 40° C. The column was eluted at a flow rate of 1 ml/min with an 18-30% linear gradient of acetonitrile in 0.1% TFA over 12 minutes followed by a 30-36% linear gradient over an additional 12 minutes. Peptides were detected by UV absorbance at 210 nm. […] To confirm chemical authenticity of immunoreactivity in culture supernatants, the conditioned medium was pre-extracted with a Sep-Pak C18 cartridge as described (Suzuki et al., 1989) before HPLC. HPLC fractions (0.5 ml) were collected and evaporated to dryness under vacuum. […] No other immunoreactive peaks were detected. […]

c1cnc2c(c1)ccc1cccnc12 [1,10-phenanthroline]
inhibition of ECE activity (in words) (ECE-1 [1]; in vitro): inhibited

C[C@H](CS)C(=O)N1CCC[C@H]1C(=O)O [Captopril]
inhibition of ECE activity (in words) (ECE-1 [1]; in vitro): not inhibited; also recorded: not by thiorphan or captopril

O=C(O)CN(CCN(CC(=O)O)CC(=O)O)CC(=O)O [EDTA]
inhibition at 1000 µM (ECE [2]; read-out: inhibition of ECE activity): > 90%

CC(C)C[C@H](NC(=O)N1CCCCCC1)C(=O)N[C@H](Cc1cn(C)c2ccccc12)C(=O)N[C@H](Cc1ccccn1)C(=O)O [FR139317]
inhibition of Ca2+ response to CHO/ECE-1 supernatant (in words) (human ETA receptor; supernatant with ≈20 pM ET-1): completely abolished

COc1c2c(c(O)c3c1C(O)Cc1cc(CC(C)O)c(C(=O)O)c(O)c1-3)C(=O)c1cccc(O)c1C2=O (stereo not shown) [FR901533, 1,6,9,14-tetrahydroxy-3-(2-hydroxypropyl)-7-methoxy-8,13-dioxo-5,6,8,13-tetrahydro-benzo[a]naphthacene-2-carboxylate Na]
inhibition of production/secretion of mature ET-1 by live double-transfected cells (in words) (ECE-1 [3]; inhibitor added to medium): did not inhibit | measured concentration in medium after culture (CHO/ECE-1 cells; 100 μM nominal, after 72-hr culture with CHO/ECE-1 cells): 94 µM | measured concentration in medium before culture (CHO/ECE-1 cells; 100 μM nominal, before 72-hr culture with CHO/ECE-1 cells): 93 µM | degradation by the cells (in words) (CHO/ECE-1 cells; 72-hr culture with CHO/ECE-1 cells): not degraded | inhibition of ECE activity (in words) (ECE-1 [1]; in vitro): efficiently inhibited | IC50 (ECE-1 [1]; in vitro, solubilized CHO/ECE-1 membranes, read-out: apparent IC50 for inhibition of ECE activity): ~1500 nM | IC50 (ECE-1 [4]): ~1000 nM | inhibition of conversion of exogenous big ET-1 (in words) (ECE-1 [4]; added to medium at low μM concentrations): efficiently inhibited

CC(C)C[C@H](NP(=O)(O)O[C@@H]1O[C@@H](C)[C@H](O)[C@@H](O)[C@H]1O)C(=O)N[C@@H](Cc1c[nH]c2ccccc12)C(=O)O [Phosphoramidon]
effect on production of mature ET-1 (in words) ([5]; added to the medium): decreases the production of mature ET-1 in a dose dependent manner | inhibition of endothelial ECE activity (in words) (endothelial ECE): low μM range | inhibition at 100 µM (ECE [2]; 100 μM, bovine adrenal cortex membranes): > 90% | inhibition of conversion of exogenous big ET-1 (in words) (ECE [6]; whole animals and isolated perfused organs, most assay systems): consistently inhibits the conversion

O=C(O)CNC(=O)C(CS)Cc1ccccc1 (stereo not shown) [Thiorphan]
inhibition of endothelial ECE activity (in words) (endothelial ECE): not by thiorphan | inhibition of ECE activity (in words) (ECE-1 [1]; in vitro): not inhibited; also recorded: not by thiorphan or captopril

[Cl-].[Cl-].[Zn+2] [ZnCl2]
reconstituted ECE activity, of the original levels (ECE-1 [7]): up to 110%

O=S(=O)(O)c1cc[c]([Hg][Cl])cc1 [pCMS, p-chloro-mercuriphenylsulphonic acid]
ECE activity (% of ECE activity without inhibitors) (ECE-1 [1]; inhibitor 100 μM, means of duplicate assays from two independent experiments): 298%

ET-1(1-20): ET-1(1-20) (CSCSSLMDKECVYFCHLDII; ends and bridges not checked; cysteine pairing not given here; UniProt P05305 53-72, looked up, fragment)
vasoconstrictor/biological activity (in words) [8]: at least three orders of magnitude weaker

ET-1(1-22): ET-1(1-22) (CSCSSLMDKECVYFCHLDIIWV; ends and bridges not checked; cysteine pairing not given here; UniProt P05305 53-74, looked up, fragment)
vasoconstrictor/biological activity (in words) [8]: at least three orders of magnitude weaker

big ET-1(1-31): C-terminally truncated substrate (CSCSSLMDKECVYFCHLDIIWVNTPEHVVPY; ends and bridges not checked; cysteine pairing not given here; UniProt P05305 53-83, looked up, fragment)
processing as ECE-1 substrate (in words) (ECE-1 [9]): did not generate detectable levels of mature peptide; also recorded: cannot be an ECE-1 substrate

big ET-1: human big ET-1(1-38) obtained from American Peptides (CSCSSLMDKECVYFCHLDIIWVNTPEHVVPYGLGSPRS; ends and bridges not checked; cysteine pairing not given here; UniProt P05305 53-90, looked up)
conversion of endogenously produced big ET-1 ([5]; cultured endothelial cells): 60-80% | conversion of endogenous big ET-1 (intracellular) (ECE-1 [3]; CHO/ECE-1 cells, depending on experimental conditions): 50-90% | concentration secreted in culture supernatant (ECE-1 [3]; preproET-1-transfected CHO/ECE-1 cells): 46 pM | conversion of endogenous big ET-1 to mature peptide, typical culture (ECE-1 [3]; preproET-1-transfected CHO/ECE-1 cells, no inhibitor): 84% | Km (endothelial ECE; crude membranes and purified enzyme preparations, read-out: apparent Km of endothelial ECE): 1 to 10 µM | intracellular Ca2+ response of ETA reporter cells (in words) (human ETA receptor; 20 pM mature ET-1 (final), 1,000-fold higher concentration of big ET-1, supernatant at ≈20 pM ET-1): did not respond | phosphoramidon-sensitive conversion of exogenously administered big ET-1 (in words) (ECE [6]; isolated perfused tissues and whole animal preparations): only up to a few % | conversion of big ET-1 into two peptide products (ECE-1 [10]): > 90% | product yield judged by areas under HPLC peaks (ECE-1 [10]): > 80% | conversion of exogenous big ET-1 (ECE-1 [4]; co-culture with CHO/ECE-1 cells): 5-10% | processing as ECE-1 substrate (in words) (ECE-1 [9]): more efficiently than big ET-2 and big ET-3
